For the test, the system named is Beagle dogs. As to the kind of experiment: Intraocular pressure studies in dogs (applanation pneumatonometry). Format: in vivo. The settings on record: conscious Beagle dogs, topical to one eye, approx. 35 μl, IOP before and at 2, 4, 6 hours on each day of 5 day study; vehicle in other eye. On the procedure:
Measurement of intraocular pressure studies in dogs will involve applanation pneumatonometry performed in Beagle dogs of both sexes. The animals will remain conscious throughout the study and will be gently restrained by hand. Compound 4-{[5-chloro-2-(4-chloro-benzyloxy)-benzoylamino]-methyl}-benzoic acid will be administered topically to one eye using a dropper bottle to deliver approximately a 35 μl volume, the other eye received vehicle (1% polysorbate 80 in 5 mM Tris HCl) as a control. Proparacaine at 0.25% was used for corneal anesthesia during tonometry. Intraocular pressure will be determined just before drug administration and at 2, 4, 6 hours thereafter on each day of the 5 day study. Measurement of ocular surface hyperemia will be performed immediately before each of the intraocular pressure readings. Ocular surface hyperemia grading will be semi-quantitative and assessed according to a 5 point scoring scale used for clinical evaluations: 0=none; 0.5=trace; 1=mild; 2=moderate; and 3=severe.

Consider `O=C(O)c1ccc(CNC(=O)c2cc(Cl)ccc2OCc2ccc(Cl)cc2)cc1` [4-{[5-chloro-2-(4-chloro-benzyloxy)-benzoylamino]-methyl}-benzoic acid], for which the intraocular pressure result was “significantly reduce intraocular pressure”.

For the origin of these results see patent publication US20130158122A1, “EP2 Agonist from Non-Prostanoid Structures Designed as PGE2 Antagonists” (ALLERGAN, INC., priority 2010, published 2013).
